We go through 16 molecules from US12599672B2, “KRAS proteolysis targeting chimeras” (PAQ Therapeutics Inc., priority 2023, dated 2026).

For assay [1], the target named is T1, KRAS G12D (Homo sapiens, UniProt P01116, G12D).
T1 construct: AsPc-1-KRAS (G12D)-HiBit-KI cell (Pharmaron); host or cells: AsPc-1-KRAS (G12D)-HiBit-KI cells (HiBiT knock-in at the endogenous KRAS locus)
The experiment in a line: KRAS G12D HiBit assay. It counts as cell-based. To be noted: AsPc-1-KRAS (G12D)-HiBit-KI cell, compound treatment for 24 hours; for DC50: absolute DC50. The essentials: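 HiBiT luminescence, detected by adding lytic buffer, substrate and LgBiT protein, served as the KRAS G12D read-out. Compounds, serially diluted 3-fold over 10 points from 0.3 mM DMSO stock, were on cells for 24 h; percent inhibition normalized to cells given 0.1% DMSO only.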
On the technique in general: The HiBiT peptide binds its large partner to form an active luciferase.

For assay [2], the target named is T2, KRAS G12V (Homo sapiens, UniProt P01116, G12V).
T2 construct: SW620-KRAS (G12V)-HiBit-KI cell (Pharmaron); host or cells: SW620-KRAS (G12V)-HiBit-KI cells (HiBiT knock-in at the endogenous KRAS locus)
T2 sequence (P01116 1-188 isoform P01116-2 G12V): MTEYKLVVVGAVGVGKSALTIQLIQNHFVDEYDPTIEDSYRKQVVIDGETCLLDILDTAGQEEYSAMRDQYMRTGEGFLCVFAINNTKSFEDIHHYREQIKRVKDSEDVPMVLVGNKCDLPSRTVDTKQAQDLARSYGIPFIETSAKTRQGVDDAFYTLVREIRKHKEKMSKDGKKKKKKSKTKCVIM
Nature of the assay: KRAS G12V HiBit assay. It counts as cell-based. The settings on record: SW620-KRAS (G12V)-HiBit-KI cells, compound treatment for 24 hours, class symbols. The method in brief: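 Luminescence from lytic Nano-Glo HiBiT detection with LgBiT read KRAS G12V levels after 24 h compound exposure. Dilutions were 10-point, 3-fold, from a 0.3 mM DMSO stock. Degradation activity was normalised to cells given 0.1% DMSO alone.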

[3] abbreviates: numeric bounds given in place of class symbols.

T1 sequence (P01116 1-188 isoform P01116-2 G12D): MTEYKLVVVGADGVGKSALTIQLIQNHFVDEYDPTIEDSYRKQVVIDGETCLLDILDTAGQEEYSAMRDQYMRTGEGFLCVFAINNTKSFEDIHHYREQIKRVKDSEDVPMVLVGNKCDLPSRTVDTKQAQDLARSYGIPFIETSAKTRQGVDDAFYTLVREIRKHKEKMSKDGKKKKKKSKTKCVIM

In the case of `CCc1c(F)ccc2cc(O)cc(-c3ncc4c(N5CCC[C@@](C)(O)C5)nc(OC[C@@]56CCCN5[C@H](COC(=O)N5CC7C(CN8CCC(c9ccc%10c(c9)n(C)c(=O)n%10C9CCC(=O)NC9=O)CC8)C7C5)CC6)nc4c3F)c12` (stereo partly drawn) [Compound 401, ((3S,7aS)-7a-(((7-(8-ethyl-7-fluoro-3-hydroxynaphthalen-1-yl)-8-fluoro-4-((R)-3-hydroxy-3-methylpiperidin-1-yl)pyrido[4,3-d]pyrimidin-2-yl)oxy)methyl)hexahydro-1H-pyrrolizin-3-yl)methyl 6-((4-(1-(2,6-dioxopiperidin-3-yl)-3-methyl-2-oxo-2,3-dihydro-1H-benzo[d]imidazol-5-yl)piperidin-1-yl)methyl)-3-azabicyclo[3.1.0]hexane-3-carboxylate], the DC50 in assay [1] (class symbols) is under 0.1 µM; in assay [2], 0.01 to 0.1 µM.
In the case of `C#Cc1c(F)ccc2cccc(-c3ncc4c(N5CCC[C@@](C)(O)C5)nc(OC[C@@]56CCCN5[C@H](COC(=O)N5CCC(N7CCC(c8cccc9c8n(C)c(=O)n9C8CCC(=O)NC8=O)CC7)CC5)CC6)nc4c3F)c12` (stereo partly drawn) [Compound 147], the DC50 in assay [1] (setting [3]) and in assay [2] was over 0.1 µM in each case.
On to `C#Cc1c(F)ccc2cc(O)cc(-c3ncc4c(N5CCC[C@@](C)(O)C5)nc(OCC5(CN6CCC(CN7CCC(c8cccc9c8n(C)c(=O)n9C8CCC(=O)NC8=O)CC7)CC6)CC5)nc4c3F)c12` (stereo partly drawn) [Compound 65], for which the DC50 in assay [1] (class symbols) was under 0.1 µM; in assay [2] it was over 0.1 µM.
In assay [1] (class symbols), `C[C@H]1CN(CC(=O)N2CCC(CN3CCC(c4ccc5c(c4)n(C)c(=O)n5C4CCC(=O)NC4=O)CC3)CC2)CCCN1c1nccc(-c2noc([C@]3(C)CCCc4sc(N)c(C#N)c43)n2)n1` (stereo partly drawn) [Compound 211, (4R)-2-amino-4-(3-{2-[(2S)-4-{2-[4-({4-[1-(2,6-dioxopiperidin-3-yl)-3-methyl-2-oxo-1,3-benzodiazol-5-yl]piperidin-1-yl}methyl)piperidin-1-yl]-2-oxoethyl}-2-methyl-1,4-diazepan-1-yl]pyrimidin-4-yl}-1,2,4-oxadiazol-5-yl)-4-methyl-6,7-dihydro-5H-1-benzothiophene-3-carbonitrile] had a DC50 of over 0.3 µM and a Dmax of under 15%. In assay [2], the DC50 is over 0.1 µM.
As for `C#Cc1c(F)ccc2cc(O)cc(-c3ccc4c(N5CCC[C@@](C)(O)C5)nc(OCC5(CN6CCC(CN7CCN(c8ccc9c(c8)n(C)c(=O)n9C8CCC(=O)NC8=O)CC7)CC6)CC5)nc4c3F)c12` (stereo partly drawn) [Compound 12], the DC50 in assay [1] (class symbols) is under 0.1 µM; in assay [2], over 0.1 µM.
As to `C#Cc1c(F)ccc2cccc(-c3ncc4c(N5CCC[C@@](C)(O)C5)nc(OCC5(CN6CCC(CN7CCC(c8cccc9c8n(C)c(=O)n9C8CCC(=O)NC8=O)CC7)CC6)CC5)nc4c3F)c12` (stereo partly drawn) [Compound 60], the DC50 in assay [1] (class symbols) is under 0.1 µM; in assay [2], over 0.1 µM.
On to `CCc1c(F)ccc2cc(O)cc(-c3ncc4c(N5CCC[C@@](C)(O)C5)nc(OC[C@@]56CCCN5[C@@H](COC(=O)N5CCC(Oc7cccc8c7n(C)c(=O)n8C7CCC(=O)NC7=O)CC5)CC6)nc4c3F)c12` (stereo partly drawn) [Compound 313, ((3R,7aS)-7a-(((7-(8-ethyl-7-fluoro-3-hydroxynaphthalen-1-yl)-8-fluoro-4-((R)-3-hydroxy-3-methylpiperidin-1-yl)pyrido[4,3-d]pyrimidin-2-yl)oxy)methyl)hexahydro-1H-pyrrolizin-3-yl)methyl 4-((1-(2,6-dioxopiperidin-3-yl)-3-methyl-2-oxo-2,3-dihydro-1H-benzo[d]imidazol-4-yl)oxy)piperidine-1-carboxylate], for which the DC50 in assay [1] (setting [3]) and in assay [2] was over 0.1 µM each time.
As to `CCc1c(F)ccc2cc(O)cc(-c3ncc4c(N5CCC[C@@](C)(O)C5)nc(OC[C@@]56CCCN5[C@H](CNC(=O)c5ccc(CN7CCC(c8ccc9c(c8)n(C)c(=O)n9C8CCC(=O)NC8=O)CC7)cc5F)CC6)nc4c3F)c12` (stereo partly drawn) [Compound 494, 4-((4-(1-(2,6-dioxopiperidin-3-yl)-3-methyl-2-oxo-2,3-dihydro-1H-benzo[d]imidazol-5-yl)piperidin-1-yl)methyl)-N-(((3S,7aS)-7a-(((7-(8-ethyl-7-fluoro-3-hydroxynaphthalen-1-yl)-8-fluoro-4-((R)-3-hydroxy-3-methylpiperidin-1-yl)pyrido[4,3-d]pyrimidin-2-yl)oxy)methyl)hexahydro-1H-pyrrolizin-3-yl)methyl)-2-fluorobenzamide], the DC50 in assay [1] (class symbols) was under 0.1 µM; in assay [2], 0.01 to 0.1 µM.
The corresponding values for `CCc1cccc2cc(O)cc(-c3cc4nc(OC[C@@]56CCCN5[C@H](COC(=O)N5CCC7(CC5)CC(N5CCC(c8ccc9c(c8)n(C)c(=O)n9C8CCC(=O)NC8=O)CC5)C7)CC6)nc(N5CCC[C@@](C)(O)C5)c4cn3)c12` (stereo partly drawn) [Compound 487, ((3S,7aS)-7a-(((7-(8-ethyl-3-hydroxynaphthalen-1-yl)-4-((R)-3-hydroxy-3-methylpiperidin-1-yl)pyrido[4,3-d]pyrimidin-2-yl)oxy)methyl)hexahydro-1H-pyrrolizin-3-yl)methyl 2-(4-(1-(2,6-dioxopiperidin-3-yl)-3-methyl-2-oxo-2,3-dihydro-1H-benzo[d]imidazol-5-yl)piperidin-1-yl)-7-azaspiro[3.5]nonane-7-carboxylate] are under 0.1 µM and under 0.01 µM.
Take `CCc1c(F)ccc2cc(O)cc(-c3ncc4c(N5CCC[C@@](C)(O)C5)nc(OC[C@@]56CCCN5[C@H](COC(=O)N5CCC(N7CC8(CC(c9ccc%10c(c9)n(C)c(=O)n%10C9CCC(=O)NC9=O)C8)C7)CC5)CC6)nc4c3F)c12` (stereo partly drawn) [Compound 365, ((3S,7aS)-7a-(((7-(8-ethyl-7-fluoro-3-hydroxynaphthalen-1-yl)-8-fluoro-4-((R)-3-hydroxy-3-methylpiperidin-1-yl)pyrido[4,3-d]pyrimidin-2-yl)oxy)methyl)hexahydro-1H-pyrrolizin-3-yl)methyl 4-(6-(1-(2,6-dioxopiperidin-3-yl)-3-methyl-2-oxo-2,3-dihydro-1H-benzo[d]imidazol-5-yl)-2-azaspiro[3.3]heptan-2-yl)piperidine-1-carboxylate]: the DC50 was under 0.1 µM in assay [1] (class symbols) and under 0.01 µM in assay [2].
The corresponding values for `CCc1c(F)ccc2cc(O)cc(-c3ncc4c(N5CCC[C@@](C)(O)C5)nc(OC[C@@]56CCCN5[C@H](COC(=O)N5CCC(N7CCC(Oc8ccc9c(c8)n(C)c(=O)n9C8CCC(=O)NC8=O)CC7)CC5)CC6)nc4c3F)c12` (stereo partly drawn) [Compound 439, ((3S,7aS)-7a-(((7-(8-ethyl-7-fluoro-3-hydroxynaphthalen-1-yl)-8-fluoro-4-((R)-3-hydroxy-3-methylpiperidin-1-yl)pyrido[4,3-d]pyrimidin-2-yl)oxy)methyl)hexahydro-1H-pyrrolizin-3-yl)methyl 4-((1-(2,6-dioxopiperidin-3-yl)-3-methyl-2-oxo-2,3-dihydro-1H-benzo[d]imidazol-5-yl)oxy)-[1,4′-bipiperidine]-1′-carboxylate] are under 0.1 µM and under 0.01 µM.
Consider `C#Cc1c(F)ccc2cccc(-c3ncc4c(N5CCC[C@@](C)(O)C5)nc(OC[C@@]56CCCN5[C@@H](COC(=O)N5CCC(CN7CCC(c8ccc9c(c8)n(C)c(=O)n9C8CCC(=O)NC8=O)CC7)CC5)CC6)nc4c3F)c12` (stereo partly drawn) [Compound 138], for which the DC50 in assay [1] (setting [3]) and in assay [2] was over 0.1 µM throughout.
For the molecule `C#Cc1c(F)ccc2cccc(-c3ncc4c(N5CCC[C@@](C)(O)C5)nc(OC[C@]56CCCN5[C@@H](COC(=O)N5CCC(CN7CCC(c8ccc9c(c8)n(C)c(=O)n9C8CCC(=O)NC8=O)CC7)CC5)CC6)nc4c3F)c12` (stereo partly drawn) [Compound 131], the DC50 was over 0.3 µM in assay [1] (class symbols) and over 0.1 µM in assay [2].
In the case of `CCc1c(F)ccc2cc(O)cc(-c3ncc4c(N5CCC[C@@](C)(O)C5)nc(OC[C@@]56CCCN5[C@H](COC(=O)N5CCC(C#Cc7cccc8c7n(C)c(=O)n8C7CCC(=O)NC7=O)CC5)CC6)nc4c3F)c12` (stereo partly drawn) [Compound 403, ((3S,7aS)-7a-(((7-(8-ethyl-7-fluoro-3-hydroxynaphthalen-1-yl)-8-fluoro-4-((R)-3-hydroxy-3-methylpiperidin-1-yl)pyrido[4,3-d]pyrimidin-2-yl)oxy)methyl)hexahydro-1H-pyrrolizin-3-yl)methyl 4-((1-(2,6-dioxopiperidin-3-yl)-3-methyl-2-oxo-2,3-dihydro-1H-benzo[d]imidazol-4-yl)ethynyl)piperidine-1-carboxylate], the DC50 in assay [1] (setting [3]) and in assay [2] was over 0.1 µM in each case.
For the molecule `CCc1c(F)ccc2cc(O)cc(-c3ccc4c(N5CCC[C@@](C)(O)C5)nc(OC[C@@]56CCCN5[C@H](COC(=O)N5CCC(CN7CCC(c8ccc9c(c8)n(C)c(=O)n9C8CCC(=O)NC8=O)CC7)CC5)CC6)nc4c3F)c12` (stereo partly drawn) [Compound 146], the DC50 is under 0.1 µM in assay [1] (class symbols) and under 0.01 µM in assay [2].
Consider `C#Cc1c(F)ccc2cc(O)cc(-c3ncc4c(N5CCC[C@@](C)(O)C5)nc(OCC5(CN6CCC(CN7CCN(c8cccc9c8n(C)c(=O)n9C8CCC(=O)NC8=O)CC7)CC6)CC5)nc4c3F)c12` (stereo partly drawn) [Compound 72], for which the DC50 is under 0.1 µM in assay [1] (class symbols) and under 0.01 µM in assay [2].
